Data from US10196345B2, “MAO-B selective inhibitor compounds, pharmaceutical compositions thereof and uses thereof” (The University of British Columbia, priority 2013, dated 2019).

Key:
[1] = stability assay in mouse liver microsomes; conditions: after 60 minutes at room temperature
recombinant human MAO-A = target: T1, recombinant human MAO-A (Homo sapiens, UniProt P21397); test: Cell-free Fluorescent Monoamine Oxidase A&B Detection Assay, MAO-A; type: biochemical; conditions: read-out: IC90 MAO-A (μM)
T1 sequence (P21397 1-527): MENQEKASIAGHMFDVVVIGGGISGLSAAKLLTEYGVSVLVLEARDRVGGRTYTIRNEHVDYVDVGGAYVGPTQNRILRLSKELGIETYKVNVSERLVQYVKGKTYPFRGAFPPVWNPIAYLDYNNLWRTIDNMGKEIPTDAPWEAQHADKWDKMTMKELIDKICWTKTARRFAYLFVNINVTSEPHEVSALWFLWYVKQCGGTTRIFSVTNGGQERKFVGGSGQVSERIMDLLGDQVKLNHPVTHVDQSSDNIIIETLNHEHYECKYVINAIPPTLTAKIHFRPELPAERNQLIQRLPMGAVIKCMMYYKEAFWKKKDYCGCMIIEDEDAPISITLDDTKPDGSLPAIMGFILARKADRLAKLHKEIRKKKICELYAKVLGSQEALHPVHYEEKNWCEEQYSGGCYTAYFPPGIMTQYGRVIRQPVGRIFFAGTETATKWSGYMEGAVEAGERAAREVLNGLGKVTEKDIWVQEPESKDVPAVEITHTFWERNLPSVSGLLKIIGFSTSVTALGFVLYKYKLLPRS
Experimental: The assay was repeated to confirm data.
MAO B specific inhibitory activity and selectivity over MAO A is assayed using a commercial kit [Fluoro MAO A and B detection kit (Cell Technology Inc™)]. This kit uses a non-fluorescent detection reagent to measure H2O2 released from the conversion of an MAO A and MAO B substrate specific to its aldehyde. Furthermore, H2O2 oxidizes the detection reagent in a 1:1 stoichiometry to produce a fluorescent product (resorufin). […] This information is then provided to the medicinal chemists to help direct synthesis of subsequent iterations.

[2] = mouse hepatocyte stability assay; conditions: after 60 minutes at room temperature
[3] = system: human intestinal microvascular endothelial cells (HIMEC); test: IL-8, IL-6 and TNFα protein expression in LPS-treated HIMEC; type: cell-based; conditions: 1000 ng/mL LPS + 10 μM compound, 1 or 3 hrs
Experimental: Human microvascular endothelial cells were seeded at 37500 cells/cm^2 on a fibronectin-coated polystyrene 96-well plate in MCDB 131 medium (#10372-019, Gibco™) containing 20% FBS. On day 2 after seeding, wells were replaced with fresh media containing 2.5% FBS. […] Supernatants of the treated cells were analyzed for pro- and anti-inflammatory cytokine proteins using the Human Proinflammatory 7-Plex Ultra-Sensitive Kit (K15008C, MSD) measured by the Sector Imager 2400A (MSD). Left panel: Absolute concentrations of IL-8, IL-6 and TNFα protein in supernatants of cells treated with control (media only) or increasing concentrations of LPS. Right panel: Absolute IL-8, IL-6 or TNFα concentrations induced or attenuated by 1000 ng/mL LPS±the novel MAO B inhibitors. Values were determined by subtracting supernatant cytokine concentrations of control from supernatant cytokine concentrations of treated cells. Results are expressed as mean±standard deviation (n=3). Statistical significance was determined using a one-way ANOVA and Tukey post-hoc test in SPSS (IBM) comparing control and LPS (left panel) or LPS and novel MAO B inhibitors (right panel). *p<0.05, **p<0.001

[4] = system: Porcine ligament epithelial (PLE) cells; test: TEER, LPS-induced barrier loss, PLE cells; type: cell-based; conditions: Transwell, LPS challenge at 72 hours
Experimental: (§1) In each case, TEER was measured every 48 hours after treatment. Statistically significant differences were identified.
(§2) Transepithelial Resistance (TER) is a common method to screen for barrier integrity. […] For select compounds barrier integrity and protection is also measured using tracer studies because TER accuracy in examining TJ integrity has recently come into question (Van Itallie et al., 2008). Fluorescein isothiocyanate conjugated 10 kD dextran (Invitrogen™) will be added to the apical Transwell™ compartment, fixed, and examined for dextran permeation (Umeda et al., 2006). We expect control and deprenyl-treated cells with an intact barrier to maintain the tracer at the apical membrane region, whereas the breached monolayers will show tracer permeation between the cells.

[5] = system: rat intestinal epithelial (IEC-6) cells; test: TEER, LPS-induced barrier loss, IEC-6 cells; type: cell-based; conditions: Transwell, LPS challenge at 72 hours
Experimental: as §1, §2

[6] = system: DSS induced colitis in C57BL/6 mice; test: 3% DSS induced colitis, claudin-3 localization; type: in vivo; conditions: 3% DSS in drinking water, day 7, C57BL/6 mice
Text: FIGS. 21A and B show a 3% DSS induced colitis and protects epithelial cell-cell claudin-3 localization. […] (A). […] (B). […] Increased cell infiltrate is evident in the DSS-treated animals by the DAPI (blue) staining.

C. rodentium infections = test: seven-day C. rodentium infection model; type: in vivo
[7] = system: IL-8 protein expression in Caco-2 cells; test: IL-8 protein expression in LPS- and TNFα-treated Caco-2 cells; type: cell-based, human; conditions: Caco-2, 1 μg/mL LPS or 50 ng/mL TNFα + 20 μM compound, 4, 12 or 24 h
Experimental: Caco-2 cells were seeded at 83300 cells/cm^2 on a polystyrene 96-well plate in DMEM medium (#10313-021, Gibco™) containing 10% FBS. On day 5 after seeding, wells were replaced with fresh media containing 2.5% FBS. […] Supernatants of the treated cells were analyzed for pro- and anti-inflammatory cytokine proteins using the Human Proinflammatory 7-Plex Ultra-Sensitive Kit™ (K15008C, MSD™) measured by the Sector Imager 2400A (MSD™). Left panel: Absolute concentrations of IL-8 protein in supernatants of cells treated with control (media only), 1 μg/mL LPS or 50 ng/mL TNFα. […] Values were determined by subtracting supernatant cytokine concentrations of control from supernatant cytokine concentrations of treated cells. Results are expressed as mean±standard deviation (n=3).

[8] = system: Madin Darby canine kidney (MDCK-I) cells; test: TEER in MDCK-I cells; type: cell-based; conditions: for TEER, LPS+deprenyl vs control: MDCK-I cells, Transwell, LPS range, 40 μM deprenyl; for 144-hour barrier (TEER) vs control: MDCK-I, treated at 72 hours; for effect on TEER (MAO A, B, AB inhibitors): no concentration given
Experimental: In each case, TEER was measured every 48 hours after treatment.
Transwell cultures were treated at 72 hours (T) post-cell plating.
Transepithelial Resistance (TER) is a common method to screen for barrier integrity. […] Fluorescein isothiocyanate conjugated 10 kD dextran (Invitrogen™) will be added to the apical Transwell™ compartment, fixed, and examined for dextran permeation (Umeda et al., 2006).
Amphiregulin (AR) is an EGFR binding ligand and may play a pivotal role in the previously described signaling axis (see FIGS. 15-17). […] (ii) GI [intestinal epithelial cell (IEC)] and (iii) classical [Madin-Darby canine kidney (MDCK-1)].

[9] = in vitro BBB permeability in MDCK-WT cells; conditions: dog, MDCK
Text: Wildtype Madin-Darby canine cells (MDCK-WT) were used to predict CNS permeability of compounds PS-RG0103, PS-RG0216, PS-RG0245 and PS-AD0191. […] J Allergy Clin Immunol. 1990; 86(6 pt 2): p. 1025-8.
Novel MAO B inhibitors selected based on the above screening program will be screened using an in vitro model of blood brain barrier (BBB). Madin-Darby canine kidney (MDCK-WT) and MDCK cells transfected with the human MDR1 gene (MDCK-MDR1) are well established in vitro models used to predict a compound's ability to permeate the blood brain barrier (BBB). […] Apparent permeability (Papp), Efflux ratio (Papp B-A/Papp A-B), as well as the Net flux ratio (Efflux ratioMDCK-MDR1/Efflux ratioMDCK-WT) can be calculated to identify compound BBB permeability and identify compounds that are substrates of P-gp.

[10] = stability assay in human liver microsomes; conditions: after 60 minutes at room temperature
[11] = system: MAO activity in adipocytes; conditions: cited from earlier work
[12] = obese and non-obese rats; cited from earlier work
[13] = system: rat periodontal disease model; conditions: cited from earlier work
AR protein secretion = test: amphiregulin (AR) protein secretion, MDCK-I cells; type: cell-based, canine; conditions: no concentration given
[14] = seven-day C. rodentium infection, preliminary

For `C#CCN(C)[C@H](C)Cc1ccccc1` [Deprenyl], the “compound remaining in mouse microsome” value [1] was “less than 2.5%”, the IC90 (recombinant human MAO-A) was 9.38 µM and the “compound remaining, mouse hepatocyte stability” value [2] was “less than 2.5%”. The “IL-8, IL-6 and TNFα protein expression” value [3] was “attenuation”, the “TEER, LPS+deprenyl vs control” value [4] was “rescues LPS reduction of TEER” and the “TEER, LPS+deprenyl vs control” value ([4]; listed as deprenyl) was “significantly induced TEER above control”. For the same compound, the “TEER, LPS+deprenyl vs control” value [5] was “rescues LPS reduction of TEER”, the “TEER, LPS+deprenyl vs control” value ([5]; listed as deprenyl) was “significantly induced TEER above control” and the claudin-3 localization [6] was “better localized to epithelial cell-cell contacts”. The bacterial growth rates (C. rodentium infections; C. rodentium) was “did not influence bacterial growth rates”, the “TJ protein localization at the cell periphery” value (C. rodentium infections; [14]) was “intact” and the hyperplastic phenotype (C. rodentium infections; [14]) was “not apparent”. The IL-8 protein expression [7] was “attenuation of IL-8 protein expression”, the “TEER, LPS+deprenyl vs control” value [8] was “rescues LPS reduction of TEER” and the “TEER, LPS+deprenyl vs control” value ([8]; listed as deprenyl) was “significantly induced TEER above control”. For the same compound, the “TEER, co-treatment with H2O2” value ([8]; MDCK-I on Transwell membranes, H2O2) was “increased TEER significantly above the control”, the “144-hour barrier (TEER) vs control” value ([8]; 5 μm inhibitor) was “increased over control” and the “144-hour barrier (TEER) vs control” value ([8]; 40 μm inhibitor) was “increased over control”. The “effect on TEER (MAO A, B, AB inhibitors)” value [8] was “increased TEER”, the Papp [9] was 440 ± 25 nm/s and the “compound remaining in human microsome” value [10] was 15%.

For `NNCCc1ccccc1` [phenelzine], the “MAO activity in adipocytes” value [11] is given as “inhibit MAO activity in adipocytes”, the MAO activity [12] is given as “inhibited MAO activity” and the body weight gain [12] is given as “diminished body weight gain”. For the same compound, the intra-abdominal adipose tissue [12] was “reduced intra-abdominal adipose tissue”, the “144-hour barrier (TEER) vs control” value ([8]; 5 μm inhibitor) was “increased over control” and the “144-hour barrier (TEER) vs control” value ([8]; 40 μm inhibitor) was “increased over control”. The “effect on TEER (MAO A, B, AB inhibitors)” value [8] was “increased TEER”, the “histological indicators of periodontal disease” value ([13]; co-applied topically with LPS, rat) was “histological indicators of periodontal disease were reduced” and the “local epithelial cell proliferation and migration, alveolar bone loss, PMN infiltration and systemic H2O2” value ([13]; rat periodontal disease model, daily LPS) was “reduced”. For the same compound, the “effect on AR expression/secretion (MAO A, B, AB inhibitors)” value (AR protein secretion) was “reduced AR expression”.
